Data: patent publication US5470873A, “Diabetes prevention and treatment using gamma-pyrones” (University Technologies International, Inc., priority 1994, dated 1995)
Values joined by “and” are separate entries in the source; they are usually repeats but may differ in a detail not shown here. Identical values can stand only once. “Also recorded” adds a separate entry of the source.

Tests used:
pancreatic islets = assay: Histologic changes of pancreatic islets (hematoxylin and eosin); type: in vivo, NOD mice; set-up: key to Diabetes: "+" indicates "yes"; "-" indicates "no"
Source text: Maltol-treated and untreated NOD mice were sacrificed and 25% of each pancreas was fixed in 6% Formalin. Paraffin-embedded sections were stained with hematoxylin and eosin and examined under an Olympus light microscope ^49. To see whether there are any histological differences between the pancreatic islets of DPD-treated and untreated NOD mice, the pancreatic islets of 35 week old mice were examined with the light microscope after staining with hematoxylin and eosin. […] The rest of their islets were rated as having either severe (22%), moderate (27%), mild (25%) or no (6%) insulitis. […] In addition, there were histopathological changes in their pancreatic islets that were rated as moderate (22% of examined islets), mild (30%) or as having no insulitis (15%).

pancreatic beta cells = assay: Destruction of pancreatic beta cells detected by fluorescein labelled anti-insulin antibody; type: in vivo, NOD mice; set-up: key to Diabetes: "+" indicates "yes"; "-" indicates "no"
Procedure: Fluorescein isothiocyanate-labelled anti-insulin antibody was prepared as described previously 45. Briefly, gamma globulin that was prepared by immunizing guinea pigs with glutaraldehyde polymerized porcine insulin and purified by Sephadex G-200 chromatography was purchased from Index Corp., Glenwood, Ill, USA. This material was labelled with FITC. Unconjugated FITC was removed by dialysis against 0.01M PBS (pH 7.5) and by gel filtration through a Sephadex G-25. The labelled gamma globulin was subsequently absorbed with acetone-treated mouse liver powder to eliminate nonspecific fluorescence. Pancreatic sections (from 25% of each pancreas) prepared from maltol-treated and untreated NOD mice were stained with FITC-labelled anti-insulin antibody and examined under a fluorescent microscope as described elsewhere 47.48. Briefly, pancreatic sections on the slides were flooded with FITC-labelled anti-insulin antibody and incubated in a humidity chamber overnight at 4° C. in the dark. The slides were then washed in three changes of cold PBS for a total of 20 min to remove any unattached antibody, mounted with Elvanol and observed with an Olympus fluorescence microscope ^45. As it is difficult to determine whether the lymphocytes observed in the pancreatic islets are contributing to beta cell destruction, another method was used to determine whether beta cells from maltol-treated or untreated NOD mice were destroyed or not. Sections of pancreatic islets were stained with a fluorescein-labelled anti-insulin antibody and the number of insulin-containing beta cells in the islets was estimated.

[1] = Prevention of clinical diabetes (glycosuria) in NOD mice; type: in vivo; conditions: observed to 35 weeks, incl. 15 weeks after cessation of treatment
Procedure: NOD mice were dosed with maltol to evaluate its effect on the pathogenesis of type I diabetes. Mice received 5 mg maltol/mouse every other day from age 2 weeks until they were 20 weeks old. Maltol extracted from ginseng as described in Example 2 was used for the first 10 weeks, then maltol purchased from Sigma Co., St. Louis, MO was used thereafter. The mice were kept until they were 35 weeks old. Urine glucose was measured at 3-day intervals from 10 to 35 weeks of age. Urinary glucose and ketone levels were determined using Diastix and Ketostix reagent slips (Miles, Ontario, Canada). Individual mice were classified as being diabetic on the basis of positive glycosuria^38. […] In contrast, 78% of age-matched control mice (22 mice) spontaneously developed autoimmune diabetes. At 35 weeks of age, fasting (8 hours of fasting) and non-fasting blood glucose levels were measured. Blood was obtained from the retro-orbital venous plexus of fasting and nonfasting NOD mice. Glucose levels were measured enzymatically by the glucose oxidase method with o-dianisidine dihydrochloride as the reactive dye ^39-41 . The mean nonfasting blood glucose level of 35 ICR mice (nondiabetic control mice; NOD mice were derived from ICR mice) was 149±27 mg/dl. Any non-fasting mouse with a blood glucose level greater than 230 mg/dl (3 SD above the mean) was scored as diabetic. The mean fasting blood glucose level of 38 ICR mice was 137±28 mg/dl. Any fasting mouse with a blood glucose level greater than 221 mg/dl (3 SD above the mean) was scored as diabetic.

[2] = individual DPD-treated non-diabetic NOD mice (animal 1-5), 35 weeks
[3] = 30% to 69% of beta cell destruction, individual DPD-treated NOD mice (animal 1-5)
[4] = less than 30% of beta cell destruction, individual DPD-treated NOD mice (animal 1-5)
[5] = no destruction of beta cells, individual DPD-treated NOD mice (animal 1-5)
[6] = over 70% of beta cell destruction, individual DPD-treated NOD mice (animal 1-5)

Q: For `Cc1occc(=O)c1O` [DPD, maltol], which Diabetes (pancreatic islets; Table 2, individual DPD-treated NOD mice) is on record?
A: -

Q: What about the “Mild histopathological changes, share of examined islets” value (pancreatic islets; group of DPD-treated NOD mice) of the same compound?
A: 30%

Q: What about the “Moderate histopathological changes, share of examined islets” value (pancreatic islets; group of DPD-treated NOD mice) of the same compound?
A: 22%

Q: What about the “No insulitis, share of examined islets” value (pancreatic islets; group of DPD-treated NOD mice) of the same compound?
A: 15%

Q: What about the “Severe insulitis, share of examined islets” value (pancreatic islets; group of DPD-treated NOD mice, untreated diabetic 35%) of the same compound?
A: about 19%

Q: And the “Severe beta cell necrosis, share of examined islets” value (pancreatic islets; group of DPD-treated NOD mice, untreated diabetic 64%)?
A: approximately 14%

Q: What about the “Beta Cell Necrosis, islets affected / islets examined” value (pancreatic islets; [2]) of the same compound?
A: 5/31 and 5/32 and 3/28 and 4/32

Q: And the “Beta Cell Necrosis, percent of islets” value (pancreatic islets; [2])?
A: 16% and 11% and 13%

Q: And the “Intact Islet, islets / islets examined” value (pancreatic islets; [2])?
A: 4/31 and 5/32 and 4/28

Q: What about the “Intact Islet, percent of islets” value (pancreatic islets; [2]) of the same compound?
A: 19% and 15% and 14% and 13%

Q: What about the “Mild Insulitis, islets affected / islets examined” value (pancreatic islets; [2]) of the same compound?
A: 9/31 and 8/32 and 11/28 and 10/31 and 9/32

Q: And the “Mild Insulitis, percent of islets” value (pancreatic islets; [2])?
A: 29% and 25% and 39% and 33% and 28%

Q: What about the “Moderate Insulitis, islets affected / islets examined” value (pancreatic islets; [2]) of the same compound?
A: 7/31 and 8/32 and 5/28 and 6/31

Q: What about the “Moderate Insulitis, percent of islets” value (pancreatic islets; [2]) of the same compound?
A: 23% and 25% and 18% and 19%

Q: And the “Severe Insulitis, islets affected / islets examined” value (pancreatic islets; [2])?
A: 6/31 and 6/32 and 5/28

Q: And the “Severe Insulitis, percent of islets” value (pancreatic islets; [2])?
A: 19% and 18%

Q: What about the “Moderate Destruction of beta cells, islets / islets examined” value (pancreatic beta cells; [3]) of the same compound?
A: 4/16 and 5/17 and 3/18 and 4/19

Q: What about the “Moderate Destruction of beta cells, percent of islets” value (pancreatic beta cells; [3]) of the same compound?
A: 25% and 29% and 17% and 21%

Q: And the Diabetes (pancreatic beta cells; Table 3, individual DPD-treated NOD mice)?
A: -

Q: And the “Destruction of pancreatic beta cells (in words)” value (pancreatic beta cells; compared to untreated, diabetic NOD mice)?
A: significantly lower

Q: What about the “Mild destruction, share of examined islets” value (pancreatic beta cells; group of DPD-treated NOD mice) of the same compound?
A: 45%

Q: What about the “Moderate destruction, share of examined islets” value (pancreatic beta cells; group of DPD-treated NOD mice) of the same compound?
A: 23%

Q: What about the “No destruction, share of examined islets” value (pancreatic beta cells; group of DPD-treated NOD mice) of the same compound?
A: 12%

Q: What about the “Severe destruction, share of examined islets” value (pancreatic beta cells; group of DPD-treated NOD mice) of the same compound?
A: 20%

Q: What about the “Mild Destruction of beta cells, islets / islets examined” value (pancreatic beta cells; [4]) of the same compound?
A: 7/16 and 7/17 and 9/18 and 9/19

Q: What about the “Mild Destruction of beta cells, percent of islets” value (pancreatic beta cells; [4]) of the same compound?
A: 43% and 41% and 50% and 47%

Q: What about the “Intact, islets / islets examined” value (pancreatic beta cells; [5]) of the same compound?
A: 2/16 and 2/17 and 2/18 and 2/19

Q: What about the “Intact, percent of islets” value (pancreatic beta cells; [5]) of the same compound?
A: 13% and 12% and 11%

Q: What about the “Severe Destruction of beta cells, islets / islets examined” value (pancreatic beta cells; [6]) of the same compound?
A: 3/16 and 3/17 and 4/18 and 4/19

Q: And the “Severe Destruction of beta cells, percent of islets” value (pancreatic beta cells; [6])?
A: 19% and 18% and 22% and 21%

Q: And the “Prevention / recurrence of clinical diabetes (in words)” value [1]?
A: no recurrence of the disease; also recorded: prevented clinical diabetes completely; also recorded: prevents the onset of clinical diabetes
